Experimental data from patent publication US11168073B2, “3,3-difluoroallylamines or salts thereof and pharmaceutical compositions comprising the same” (YUHAN CORPORATION, priority 2018, dated 2021).
Counter-ions that a name gives are not always drawn.

Legend:
Assay type in all cases: biochemical
[1] = target: T1, recombinant human DAO (diamine oxidase) (Homo sapiens, UniProt P19801); assay: Activity evaluation on recombinant human DAO (Amplex Red/HRP-coupled assay, 1 mM putrescine substrate); details: 1 mM putrescine substrate, read-out: Inhibitory Activity (IC50, nM) DAO
T1 construct: purchased R&D systems
T1 sequence (P19801 20-751): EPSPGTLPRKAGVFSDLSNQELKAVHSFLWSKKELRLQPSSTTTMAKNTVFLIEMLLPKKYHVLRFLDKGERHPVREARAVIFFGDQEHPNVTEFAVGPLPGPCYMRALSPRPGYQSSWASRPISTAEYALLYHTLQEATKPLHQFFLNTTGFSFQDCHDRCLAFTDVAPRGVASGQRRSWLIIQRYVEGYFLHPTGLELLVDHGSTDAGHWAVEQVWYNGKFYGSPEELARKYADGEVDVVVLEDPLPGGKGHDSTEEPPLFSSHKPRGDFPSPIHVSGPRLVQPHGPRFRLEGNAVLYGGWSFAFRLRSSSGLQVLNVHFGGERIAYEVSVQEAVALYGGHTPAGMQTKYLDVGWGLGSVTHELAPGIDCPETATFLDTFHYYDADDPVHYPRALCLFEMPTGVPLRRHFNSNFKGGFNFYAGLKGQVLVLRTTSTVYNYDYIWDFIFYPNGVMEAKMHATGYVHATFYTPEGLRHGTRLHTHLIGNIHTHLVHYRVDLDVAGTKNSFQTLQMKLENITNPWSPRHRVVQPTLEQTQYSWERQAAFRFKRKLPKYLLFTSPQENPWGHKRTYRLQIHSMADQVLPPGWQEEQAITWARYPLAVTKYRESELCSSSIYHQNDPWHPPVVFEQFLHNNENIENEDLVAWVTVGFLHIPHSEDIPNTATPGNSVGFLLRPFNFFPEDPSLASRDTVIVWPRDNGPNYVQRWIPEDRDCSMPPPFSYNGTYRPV
Summary of the method: (§1)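 8-pt 1:3 dilution series, final DMSO <1%; 30 min 37 °C preincubation w/ enzyme, 50 mM Na phosphate pH 7.4; + 200 uM Amplex Red, 1 U/mL HRP, substrate (MAO-A tyramine 0.5 mM; MAO-B benzylamine 1 mM; DAO putrescine 1 mM); fluor. rate 544/590 nm, 1-2 h; 4-param IC50.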

[2] = target: T2, recombinant human MAO-B (monoamine oxidase-B) (Homo sapiens, UniProt P27338); assay: Activity evaluation on recombinant human MAO-B (Amplex Red/HRP-coupled assay, 1 mM benzylamine substrate); details: 1 mM benzylamine substrate, read-out: Inhibitory Activity (IC50, nM) MAO-B
T2 construct: purchased Sigma-Aldrich
T2 sequence (P27338 1-520): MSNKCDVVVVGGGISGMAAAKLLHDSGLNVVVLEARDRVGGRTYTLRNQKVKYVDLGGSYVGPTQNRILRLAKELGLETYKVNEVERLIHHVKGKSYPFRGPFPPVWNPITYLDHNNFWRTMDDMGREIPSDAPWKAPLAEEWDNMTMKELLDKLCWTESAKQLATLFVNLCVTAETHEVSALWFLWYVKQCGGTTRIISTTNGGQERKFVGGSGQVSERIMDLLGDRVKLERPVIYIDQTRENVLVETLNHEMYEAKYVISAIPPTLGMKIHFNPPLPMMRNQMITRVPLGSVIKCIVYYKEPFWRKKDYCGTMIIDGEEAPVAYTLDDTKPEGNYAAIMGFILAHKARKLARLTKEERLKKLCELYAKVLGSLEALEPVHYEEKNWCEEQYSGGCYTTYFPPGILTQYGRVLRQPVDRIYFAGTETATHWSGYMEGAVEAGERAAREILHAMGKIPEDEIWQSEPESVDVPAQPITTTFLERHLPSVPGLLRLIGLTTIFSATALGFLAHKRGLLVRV
Summary of the method: as §1

[3] = target: T3, recombinant human MAO-A (monoamine oxidase-A) (Homo sapiens, UniProt P21397); assay: Activity evaluation on recombinant human MAO-A (Amplex Red/HRP-coupled assay, 0.5 mM tyramine substrate); details: 0.5 mM tyramine substrate, read-out: Inhibitory Activity (IC50, nM) MAO-A
T3 construct: purchased Sigma-Aldrich
T3 sequence (P21397 1-527): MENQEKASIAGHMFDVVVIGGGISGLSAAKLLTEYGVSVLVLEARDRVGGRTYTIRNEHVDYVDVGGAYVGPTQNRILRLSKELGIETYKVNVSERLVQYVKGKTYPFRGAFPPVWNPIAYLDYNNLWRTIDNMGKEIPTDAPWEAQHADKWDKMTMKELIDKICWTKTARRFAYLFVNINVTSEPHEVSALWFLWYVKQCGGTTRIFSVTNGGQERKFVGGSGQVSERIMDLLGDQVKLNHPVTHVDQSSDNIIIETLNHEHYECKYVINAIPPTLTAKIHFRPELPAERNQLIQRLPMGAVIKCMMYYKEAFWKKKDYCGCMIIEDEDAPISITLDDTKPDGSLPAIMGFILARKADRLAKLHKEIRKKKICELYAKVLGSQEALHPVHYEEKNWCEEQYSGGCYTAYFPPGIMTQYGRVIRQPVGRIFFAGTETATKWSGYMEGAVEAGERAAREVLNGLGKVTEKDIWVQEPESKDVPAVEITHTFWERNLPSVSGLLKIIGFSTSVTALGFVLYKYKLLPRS
Summary of the method: as §1

[4] = target: T4, recombinant human VAP-1 (Homo sapiens, UniProt Q16853); assay: Activity evaluation on recombinant human VAP-1 (Amplex Red/HRP-coupled hydrogen peroxide assay, benzylamine substrate); details: recombinant human VAP-1, benzylamine substrate; read-out: Inhibitory Activity (IC50, nM) human VAP-1
T4 construct: purchased R&D systems
T4 sequence (Q16853 1-763): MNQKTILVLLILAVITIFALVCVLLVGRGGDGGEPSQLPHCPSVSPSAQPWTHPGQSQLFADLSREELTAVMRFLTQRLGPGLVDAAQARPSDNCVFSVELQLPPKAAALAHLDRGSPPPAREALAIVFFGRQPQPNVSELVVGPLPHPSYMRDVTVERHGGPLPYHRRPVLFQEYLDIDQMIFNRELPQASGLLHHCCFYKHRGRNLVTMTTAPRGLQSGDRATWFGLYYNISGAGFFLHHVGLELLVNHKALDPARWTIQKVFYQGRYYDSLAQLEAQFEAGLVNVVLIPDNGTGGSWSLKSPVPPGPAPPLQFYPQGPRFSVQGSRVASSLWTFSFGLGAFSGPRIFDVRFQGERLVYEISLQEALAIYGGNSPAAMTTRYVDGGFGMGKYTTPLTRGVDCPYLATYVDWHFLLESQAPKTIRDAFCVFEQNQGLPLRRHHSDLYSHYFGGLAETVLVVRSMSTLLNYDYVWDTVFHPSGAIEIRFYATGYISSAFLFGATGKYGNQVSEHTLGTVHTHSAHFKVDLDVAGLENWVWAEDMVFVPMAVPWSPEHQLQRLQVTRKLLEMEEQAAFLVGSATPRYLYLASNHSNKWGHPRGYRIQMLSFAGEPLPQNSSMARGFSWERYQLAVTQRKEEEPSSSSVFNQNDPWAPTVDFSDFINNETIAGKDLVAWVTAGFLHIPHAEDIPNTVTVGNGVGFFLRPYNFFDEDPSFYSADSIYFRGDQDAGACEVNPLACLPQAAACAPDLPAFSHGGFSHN
Summary of the method: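 Hydrogen peroxide from benzylamine (1 mM) oxidation by human recombinant VAP-1 detected via HRP-coupled Amplex Red (200 uM) fluorescence, kinetic over 1–2 h. Enzyme and compound preincubated 30 min at 37 °C, pH 7.4 phosphate; 8-point dose response, signal-rate decrease versus DMSO control fitted to four-parameter logistic for IC50.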

Compound | IC50 [1] | IC50 [2] | IC50 [3] | IC50 [4]
CCn1cc(-c2ccc3sc(Cn4cnn(CC(CN)=C(F)F)c4=O)cc3c2)ccc1=O [Example 207, 5-[2-[[1-[2-(aminomethyl)-3,3-difluoro-allyl]-5-oxo-1,2,4-triazol-4-yl]methyl]benzothiophen-5-yl]-1-ethyl-pyridin-2-one Trifluoroacetate] | > 100000 nM | > 100000 nM | > 100000 nM | 0.7 nM
CN(C)c1ccc(-c2ccc3sc(Cn4cnn(CC(CN)=C(F)F)c4=O)cc3c2)cn1 [Example 208, 2-[2-(aminomethyl)-3,3-difluoro-allyl]-4-[[5-[6-(dimethylamino)-3-pyridyl]benzothiophen-2-yl]methyl]-1,2,4-triazol-3-one Trifluoroacetate] | > 100000 nM | 42400 nM | 89900 nM | 2.5 nM
NCC(Cn1ncn(Cc2cc3cc(-c4ccc5c(c4)OCO5)ccc3s2)c1=O)=C(F)F [Example 209, 2-[2-(aminomethyl)-3,3-difluoro-allyl]-4-[[5-(1,3-benzodioxol-5-yl)benzothiophen-2-yl]methyl]-1,2,4-triazol-3-one Trifluoroacetate] | 93700 nM | 5180 nM | > 100000 nM | 4.3 nM
CN1C(=O)CCc2cc(-c3ccc4sc(Cn5cnn(CC(CN)=C(F)F)c5=O)cc4c3)ccc21 [Example 211, 6-[2-[[1-[2-(aminomethyl)-3,3-difluoro-allyl]-5-oxo-1,2,4-triazol-4-yl]methyl]benzothiophen-5-yl]-1-methyl-3,4-dihydroquinolin-2-one Trifluoroacetate] | 1860 nM | 42700 nM | 38900 nM | 1.1 nM
CCn1cc(-c2ccc3sc(Cn4cnn(CC(CN)=C(F)F)c4=O)cc3c2)cn1 [Example 212, 2-[2-(aminomethyl)-3,3-difluoro-allyl]-4-[[5-(1-ethylpyrazol-4-yl)benzothiophen-2-yl]methyl]-1,2,4-triazol-3-one Trifluoroacetate] | 4320 nM | > 100000 nM | 79100 nM | 1.5 nM
CN(C)c1cc(-c2cccc(-n3cnn(CC(CN)=C(F)F)c3=O)n2)ccc1F [Example 217, 2-[2-(aminomethyl)-3,3-difluoro-allyl]-4-[6-[3-(dimethylamino)-4-fluoro-phenyl]-2-pyridyl]-1,2,4-triazol-3-one Trifluoroacetate] | 1500 nM | 13700 nM | > 100000 nM | 1.1 nM

Compounds with a lower IC50 [1], results first:

IC50 [1] | IC50 [2] | IC50 [3] | IC50 [4] | Compound
1230 nM | > 100000 nM | > 100000 nM | 1.5 nM | Cc1cc(-c2ccc3sc(Cn4cnn(CC(CN)=C(F)F)c4=O)cc3c2)cc2c1NC(=O)CC2 [Example 210, 6-[2-[[1-[2-(aminomethyl)-3,3-difluoro-allyl]-5-oxo-1,2,4-triazol-4-yl]methyl]benzothiophen-5-yl]-8-methyl-3,4-dihydro-1H-quinolin-2-one Trifluoroacetate]
1300 nM | > 100000 nM | > 100000 nM | 2.5 nM | NCC(Cn1ncn(-c2cccc(-c3ccc(N4CCNCC4)nc3)n2)c1=O)=C(F)F [Example 213, 2-[2-(aminomethyl)-3,3-difluoro-allyl]-4-[6-(6-piperazin-1-yl-3-pyridyl)-2-pyridyl]-1,2,4-triazol-3-one Ditrifluoroacetate]
940 nM | > 100000 nM | > 100000 nM | 1.7 nM | NCC(Cn1ncn(-c2cccc(-c3ccc(C(=O)N4CCOCC4)cc3)n2)c1=O)=C(F)F [Example 214, 2-[2-(aminomethyl)-3,3-difluoro-allyl]-4-[6-[4-(morpholine-4-carbonyl)phenyl]-2-pyridyl]-1,2,4-triazol-3-one Trifluoroacetate]
280 nM | > 100000 nM | > 100000 nM | 0.7 nM | NCC(Cn1ncn(-c2cccc(-c3ccc(N4CCOCC4)nc3)n2)c1=O)=C(F)F [Example 215, 2-[2-(aminomethyl)-3,3-difluoro-allyl]-4-[6-(6-morpholino-3-pyridyl)-2-pyridyl]-1,2,4-triazol-3-one Trifluoroacetate]
63 nM | > 100000 nM | > 100000 nM | 1.3 nM | NCC(Cn1ncn(-c2cccc(-c3cccc(N4CCNCC4)c3)n2)c1=O)=C(F)F [Example 216, 2-[2-(aminomethyl)-3,3-difluoro-allyl]-4-[6-(3-piperazin-1-ylphenyl)-2-pyridyl]-1,2,4-triazol-3-one Ditrifluoroacetate]
130 nM | > 100000 nM | > 100000 nM | 0.8 nM | CCn1cc(-c2cccc(-n3cnn(CC(CN)=C(F)F)c3=O)n2)ccc1=O [Example 218, 5-[6-[1-[2-(aminomethyl)-3,3-difluoro-allyl]-5-oxo-1,2,4-triazol-4-yl]-2-pyridyl]-1-ethyl-pyridin-2-one Trifluoroacetate]
47 nM | 68500 nM | > 100000 nM | 0.2 nM | NCC(Cn1ncn(-c2cccc(-c3ccc4c(c3)NC(=O)OC4)n2)c1=O)=C(F)F [Example 219, 7-[6-[1-[2-(aminomethyl)-3,3-difluoro-allyl]-5-oxo-1,2,4-triazol-4-yl]-2-pyridyl]-1,4-dihydro-3,1-benzoxazin-2-one Trifluoroacetate]
